Legend:
[1] = test system: Escherichia coli EC-1: VOGEL, mouse virulent; assay: MIC determination (CLSI), strain EC-1; format: cell-based; settings: strain EC-1; unit assumed
In short: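 The mouse-virulent VOGEL isolate of E. coli, EC-1, served as test organism. Minimum inhibitory concentration was measured by CLSI dilution methodology (M7-A7; M100-S18 standards).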

[2] = test system: Pseudomonas aeruginosa UI-18: Wild-type (PA-7); assay: MIC determination (CLSI), strain PA-7; format: cell-based; settings: strain PA-7; unit assumed
In short: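 MIC determined by broth dilution per CLSI M7-A7 guidelines with M100-S18 interpretive standards. Test organism: wild-type Pseudomonas aeruginosa UI-18, designated PA-7.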

`C[C@@](CCn1ccc(-c2ccc(C3(O)CCC3)cc2)cc1=O)(C(=O)NO)S(C)(=O)=O` [Example 351, (2R)-N-hydroxy-4-{4-[4-(1-hydroxycyclobutyl)phenyl]-2-oxopyridin-1(2H)-yl}-2-methyl-2-(methylsulfonyl)butanamide] showed an EC-1 (MIC) [1] of 16 µg/mL and a PA-7 (MIC) [2] of 16 µg/mL.

`COC1(c2ccc(-c3ccn(CC[C@](C)(C(=O)NO)S(C)(=O)=O)c(=O)c3)cc2)CCC1` [Example 352, (2R)-N-hydroxy-4-{4-[4-(1-methoxycyclobutyl)phenyl]-2-oxopyridin-1(2H)-yl}-2-methyl-2-(methylsulfonyl)butanamide] showed an EC-1 (MIC) [1] of 2 µg/mL and a PA-7 (MIC) [2] of 8 µg/mL.

`C[C@@](CCn1ccc(-c2c(F)cccc2F)cc1=O)(C(=O)NO)S(C)(=O)=O` [Example 353] was tested, and the EC-1 (MIC) [1] was 4 µg/mL and the PA-7 (MIC) [2] was 1 µg/mL.

`C[C@@](CCn1ccc(-c2ccc(OC(F)(F)F)cc2F)cc1=O)(C(=O)NO)S(C)(=O)=O` [Example 354, (2R)-4-{4-[2-fluoro-4-(trifluoromethoxy)phenyl]-2-oxopyridin-1(2H)-yl}-N-hydroxy-2-methyl-2-(methylsulfonyl)butanamide] was tested, and the EC-1 (MIC) [1] was 0.25 µg/mL and the PA-7 (MIC) [2] was 0.5 µg/mL.

Work on `C[C@@](CCn1ccc(-c2ccc(SCC#N)cc2)cc1=O)(C(=O)NO)S(C)(=O)=O` [Example 355, (2R)-4-[4-{4-[(cyanomethyl)thio]phenyl}-2-oxopyridin-1(2H)-yl]-N-hydroxy-2-methyl-2-(methylsulfonyl)butanamide] yielded an EC-1 (MIC) [1] of 4 µg/mL and a PA-7 (MIC) [2] of 2 µg/mL.

`Cc1cc(SCC#N)ccc1-c1ccn(CC[C@](C)(C(=O)NO)S(C)(=O)=O)c(=O)c1` [Example 356, (2R)-4-[4-{4-[(cyanomethyl)thio]-2-methylphenyl}-2-oxopyridin-1(2H)-yl]-N-hydroxy-2-methyl-2-(methylsulfonyl)butanamide] showed an EC-1 (MIC) [1] of 16 µg/mL and a PA-7 (MIC) [2] of 4 µg/mL.

In the case of `CC(C#N)Sc1ccc(-c2ccn(CC[C@](C)(C(=O)NO)S(C)(=O)=O)c(=O)c2)cc1` (some centres unmarked) [Example 357], the EC-1 (MIC) [1] is reported as 1 µg/mL and the PA-7 (MIC) [2] is reported as 1 µg/mL.

`Cc1cc(-n2nccn2)ccc1-c1ccn(CC[C@](C)(C(=O)NO)S(C)(=O)=O)c(=O)c1` [Example 358, (2R)-N-hydroxy-2-methyl-2-(methylsulfonyl)-4-{4-[2-methyl-4-(2H-1,2,3-triazol-2-yl)phenyl]-2-oxopyridin-1(2H)-yl}butanamide] gave an EC-1 (MIC) [1] of 0.25 µg/mL and a PA-7 (MIC) [2] of 1 µg/mL.

With `C[C@H](O)c1ccc2cc(-c3ccn(CC[C@](C)(C(=O)NO)S(C)(=O)=O)c(=O)c3)ccc2c1` [Example 360, (2R)-N-hydroxy-4-[4-{6-[(1S)-1-hydroxyethyl]-2-naphthyl}-2-oxopyridin-1(2H)-yl]-2-methyl-2-(methylsulfonyl)butanamide] the EC-1 (MIC) [1] was 0.5 µg/mL and the PA-7 (MIC) [2] was 1 µg/mL.

Molecule `CCOc1ccc(-c2ccn(CC[C@](C)(C(=O)NO)S(C)(=O)=O)c(=O)c2)c(F)c1` [Example 361, (2R)-4-[4-(4-ethoxy-2-fluorophenyl)-2-oxopyridin-1(2H)-yl]-N-hydroxy-2-methyl-2-(methylsulfonyl)butanamide] has an EC-1 (MIC) [1] of 0.5 µg/mL and a PA-7 (MIC) [2] of 2 µg/mL.

`CC(C)(C#N)c1ccc(-c2ccn(CC[C@](C)(C(=O)NO)S(C)(=O)=O)c(=O)c2)cc1` [Example 362, (2R)-4-{4-[4-(1-cyano-1-methylethyl)phenyl]-2-oxopyridin-1(2H)-yl}-N-hydroxy-2-methyl-2-(methylsulfonyl)butanamide] showed an EC-1 (MIC) [1] of 16 µg/mL and a PA-7 (MIC) [2] of 4 µg/mL.

`Cn1ccnc1-c1ccc(-c2ccn(CC[C@](C)(C(=O)NO)S(C)(=O)=O)c(=O)c2)cc1` [Example 363, (2R)-N-hydroxy-2-methyl-4-{4-[4-(1-methyl-1H-imidazol-2-yl)phenyl]-2-oxopyridin-1(2H)-yl}-2-(methylsulfonyl)butanamide] showed an EC-1 (MIC) [1] of 32 µg/mL and a PA-7 (MIC) [2] of 64 µg/mL.

Work on `C[C@@](CCn1ccc(-c2ccc(-n3ccnn3)cc2)cc1=O)(C(=O)NO)S(C)(=O)=O` [Example 364, (2R)-N-hydroxy-2-methyl-2-(methylsulfonyl)-4-{2-oxo-4-[4-(1H-1,2,3-triazol-1-yl)phenyl]pyridin-1(2H)-yl}butanamide] yielded an EC-1 (MIC) [1] of 16 µg/mL and a PA-7 (MIC) [2] of 16 µg/mL.

In the case of `C[C@@](CCn1ccc(-c2ccc(OCCC[C@@H](O)CO)cc2)cc1=O)(C(=O)NO)S(C)(=O)=O` [Example 365, (2R)-4-[4-(4-{[(4R)-4,5-dihydroxypentyl]oxy}phenyl)-2-oxopyridin-1(2H)-yl]-N-hydroxy-2-methyl-2-(methylsulfonyl)butanamide], the EC-1 (MIC) [1] is reported as 4 µg/mL and the PA-7 (MIC) [2] is reported as 4 µg/mL.

`C[C@@](CCn1ccc(-c2ccc(OCCC(O)CO)cc2)cc1=O)(C(=O)NO)S(C)(=O)=O` (stereo partly drawn) [Example 366, (2R)-4-{4-[4-(3,4-dihydroxybutoxy)phenyl]-2-oxopyridin-1(2H)-yl}-N-hydroxy-2-methyl-2-(methylsulfonyl)butanamide] gave an EC-1 (MIC) [1] of 16 µg/mL and a PA-7 (MIC) [2] of 16 µg/mL.

In the case of `C[C@@](CCn1ccc(-c2ccc(-c3ncc[nH]3)cc2)cc1=O)(C(=O)NO)S(C)(=O)=O` [Example 367, (2R)-N-hydroxy-4-{4-[4-(1H-imidazol-2-yl)phenyl]-2-oxopyridin-1(2H)-yl}-2-methyl-2-(methylsulfonyl)butanamide], the EC-1 (MIC) [1] is reported as 8 µg/mL and the PA-7 (MIC) [2] is reported as > 64 µg/mL.

In the case of `Cc1nccn1-c1ccc(-c2ccn(CC[C@](C)(C(=O)NO)S(C)(=O)=O)c(=O)c2)cc1` [Example 368, (2R)-N-hydroxy-2-methyl-4-{4-[4-(2-methyl-1H-imidazol-1-yl)phenyl]-2-oxopyridin-1(2H)-yl}-2-(methylsulfonyl)butanamide], the EC-1 (MIC) [1] is reported as > 64 µg/mL and the PA-7 (MIC) [2] is reported as 16 µg/mL.

Molecule `Cc1cc(-c2ccc(-c3ccn(CC[C@](C)(C(=O)NO)S(C)(=O)=O)c(=O)c3)cc2)[nH]n1` [Example 369] has an EC-1 (MIC) [1] of 2 µg/mL and a PA-7 (MIC) [2] of 4 µg/mL.

For `Cc1cc(-c2ccc(-c3ccn(CC[C@](C)(C(=O)NO)S(C)(=O)=O)c(=O)c3)cc2)no1` [Example 370, (2R)-N-hydroxy-2-methyl-4-{4-[4-(5-methylisoxazol-3-yl)phenyl]-2-oxopyridin-1(2H)-yl}-2-(methylsulfonyl)butanamide], the EC-1 (MIC) [1] was 0.125 µg/mL and the PA-7 (MIC) [2] was 0.5 µg/mL.

In the case of `C[C@@](CCn1ccc(-c2ccc(-n3cncn3)cc2)cc1=O)(C(=O)NO)S(C)(=O)=O` [Example 371, (2R)-N-hydroxy-2-methyl-2-(methylsulfonyl)-4-{2-oxo-4-[4-(1H-1,2,4-triazol-1-yl)phenyl]pyridin-1(2H)-yl}butanamide], the EC-1 (MIC) [1] is reported as 32 µg/mL and the PA-7 (MIC) [2] is reported as 8 µg/mL.

`C[C@@](CCn1ccc(-c2ccc(-n3nccn3)cc2F)cc1=O)(C(=O)NO)S(C)(=O)=O` [Example 372] showed an EC-1 (MIC) [1] of 0.06 µg/mL and a PA-7 (MIC) [2] of 2 µg/mL.

With `Cc1nn(-c2ccc(-c3ccn(CC[C@](C)(C(=O)NO)S(C)(=O)=O)c(=O)c3)cc2)nc1C` [Example 373, (2R)-4-{4-[4-(4,5-dimethyl-2H-1,2,3-triazol-2-yl)phenyl]-2-oxopyridin-1(2H)-yl}-N-hydroxy-2-methyl-2-(methylsulfonyl)butanamide] the EC-1 (MIC) [1] was 0.125 µg/mL and the PA-7 (MIC) [2] was 1 µg/mL.

Work on `C[C@@](CCn1ccc(-c2ccc(-c3ccccn3)cc2)cc1=O)(C(=O)NO)S(C)(=O)=O` [Example 374, (2R)-N-hydroxy-2-methyl-2-(methylsulfonyl)-4-[2-oxo-4-(4-pyridin-2-ylphenyl)pyridin-1(2H)-yl]butanamide] yielded an EC-1 (MIC) [1] of 0.25 µg/mL and a PA-7 (MIC) [2] of 1 µg/mL.

`Cc1ccnc(-c2ccc(-c3ccn(CC[C@](C)(C(=O)NO)S(C)(=O)=O)c(=O)c3)cc2)n1` [Example 375, (2R)-N-hydroxy-2-methyl-4-{4-[4-(4-methylpyrimidin-2-yl)phenyl]-2-oxopyridin-1(2H)-yl}-2-(methylsulfonyl)butanamide] was tested, and the EC-1 (MIC) [1] was 0.5 µg/mL and the PA-7 (MIC) [2] was 4 µg/mL.

Work on `Cn1nnc(-c2ccc(-c3ccn(CC[C@](C)(C(=O)NO)S(C)(=O)=O)c(=O)c3)cc2)n1` [Example 376] yielded an EC-1 (MIC) [1] of 0.5 µg/mL and a PA-7 (MIC) [2] of 2 µg/mL.

`Cc1cn(-c2ccc(-c3ccn(CC[C@](C)(C(=O)NO)S(C)(=O)=O)c(=O)c3)cc2)nn1` [Example 377, (2R)-N-hydroxy-2-methyl-2-(methylsulfonyl)-4-{4-[4-(4-methyl-1H-1,2,3-triazol-1-yl)phenyl]-2-oxopyridin-1(2H)-yl}butanamide] was tested, and the EC-1 (MIC) [1] was 8 µg/mL and the PA-7 (MIC) [2] was 8 µg/mL.

With `Cc1nnnn1-c1ccc(-c2ccn(CC[C@](C)(C(=O)NO)S(C)(=O)=O)c(=O)c2)cc1` [Example 378, (2R)-N-hydroxy-2-methyl-2-(methylsulfonyl)-4-{4-[4-(5-methyl-1H-tetrazol-1-yl)phenyl]-2-oxopyridin-1(2H)-yl}butanamide] the EC-1 (MIC) [1] was 32 µg/mL and the PA-7 (MIC) [2] was 64 µg/mL.

`Cc1nnn(-c2ccc(-c3ccn(CC[C@](C)(C(=O)NO)S(C)(=O)=O)c(=O)c3)cc2)n1` [Example 379, (2R)-N-hydroxy-2-methyl-2-(methylsulfonyl)-4-{4-[4-(5-methyl-2H-tetrazol-2-yl)phenyl]-2-oxopyridin-1(2H)-yl}butanamide] showed an EC-1 (MIC) [1] of 0.5 µg/mL and a PA-7 (MIC) [2] of 2 µg/mL.

`C[C@@](CCn1ccc(-c2ccc(-c3cnsc3)cc2)cc1=O)(C(=O)NO)S(C)(=O)=O` [Example 380, (2R)-N-hydroxy-4-[4-(4-isothiazol-4-ylphenyl)-2-oxopyridin-1(2H)-yl]-2-methyl-2-(methylsulfonyl)butanamide] gave an EC-1 (MIC) [1] of 0.5 µg/mL and a PA-7 (MIC) [2] of 1 µg/mL.

With `C[C@@](CCn1ccc(-c2ccc3cc(N4CCC(O)CC4)ccc3c2)cc1=O)(C(=O)NO)S(C)(=O)=O` [Example 381, (2R)-N-hydroxy-4-{4-[6-(4-hydroxypiperidin-1-yl)-2-naphthyl]-2-oxopyridin-1(2H)-yl}-2-methyl-2-(methylsulfonyl)butanamide] the EC-1 (MIC) [1] was 1 µg/mL and the PA-7 (MIC) [2] was 16 µg/mL.

In the case of `Cc1nnc(C)n1-c1ccc(-c2ccn(CC[C@](C)(C(=O)NO)S(C)(=O)=O)c(=O)c2)cc1` [Example 382, (2R)-4-{4-[4-(3,5-dimethyl-4H-1,2,4-triazol-4-yl)phenyl]-2-oxopyridin-1(2H)-yl}-N-hydroxy-2-methyl-2-(methylsulfonyl)butanamide], the EC-1 (MIC) [1] is reported as > 64 µg/mL and the PA-7 (MIC) [2] is reported as > 64 µg/mL.

— patent US8846933B2, “N-link hydroxamic acid derivatives useful as antibacterial agents” (Pfizer Inc., priority 2009, dated 2014)
